# Read-outs that look alike come from different tables or passages of the source.
# Experiments:
# [1] = biological target: T1, Drosophila OR47a (Drosophila melanogaster, UniProt P81921); test: Calcium ion fluorescence (GCaMP6) assay, OR47a stable HEK293 cell line; type: cell-based; settings: for Average response: OR47a cell line, mean of biological replicates; for DF norm AVERAGE OR47a: normalized fluorescence change, values below 0.05 threshold given as 0
# T1 construct: expressed in transfected cells
# T1 sequence (P81921 1-385): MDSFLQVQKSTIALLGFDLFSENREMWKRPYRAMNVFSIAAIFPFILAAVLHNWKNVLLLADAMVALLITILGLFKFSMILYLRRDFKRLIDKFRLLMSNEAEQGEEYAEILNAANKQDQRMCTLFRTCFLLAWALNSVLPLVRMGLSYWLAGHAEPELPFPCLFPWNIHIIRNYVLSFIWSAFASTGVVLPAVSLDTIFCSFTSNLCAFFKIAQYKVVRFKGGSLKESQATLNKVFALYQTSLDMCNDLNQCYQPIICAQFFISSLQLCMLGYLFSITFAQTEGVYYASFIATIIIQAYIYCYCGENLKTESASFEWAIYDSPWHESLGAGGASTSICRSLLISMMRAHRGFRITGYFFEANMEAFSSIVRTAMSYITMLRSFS
# T1 sequence (Q9VNB5 1-486 partner): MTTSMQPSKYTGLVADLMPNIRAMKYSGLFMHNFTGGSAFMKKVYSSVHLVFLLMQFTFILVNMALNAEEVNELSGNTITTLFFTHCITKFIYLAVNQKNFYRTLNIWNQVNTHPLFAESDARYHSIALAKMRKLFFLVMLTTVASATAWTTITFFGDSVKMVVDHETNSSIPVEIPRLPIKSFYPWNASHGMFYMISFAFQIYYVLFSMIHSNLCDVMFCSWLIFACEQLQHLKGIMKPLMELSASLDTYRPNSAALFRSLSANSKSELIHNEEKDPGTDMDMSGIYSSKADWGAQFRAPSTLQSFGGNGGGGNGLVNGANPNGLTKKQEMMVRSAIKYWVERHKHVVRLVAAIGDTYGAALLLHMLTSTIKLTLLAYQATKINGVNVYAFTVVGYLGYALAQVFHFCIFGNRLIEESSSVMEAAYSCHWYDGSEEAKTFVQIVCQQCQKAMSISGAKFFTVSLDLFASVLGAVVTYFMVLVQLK
# Experimental: (§1) These VUAA1 normalized ∆F values were used to compare the different receptors and ligands.
# (§2) The concentration-dependent effect of the reference ligands on their cognate cell lines was examined in more detail. Twelve different ligand concentrations were measured on each cell line in an overall 0.01 μM to 100 μM concentration range with 5 repetitions with three technical replicates each time.
# (§3) Twelve thousand to 18,000 cells were plated into each well of a black wall, transparent bottom 384-well microplate (Greiner) 48 h or 72 h before the measurements and were simultaneously treated with 1 μg/mL doxycycline. […] The plate has 24 columns, thus we could record responses in up to eight different cell lines in each plate. On the day of the experiment, the growth medium was replaced with 20 µL assay buffer/well (140 mM NaCl, 5 mM KCl, 2 mM CaCl2, 1 mM MgCl2, 5 mM HEPES-Na, 20 mM glucose, pH 7.3, 340 mOsm). […] Baseline fluorescence (F0) was recorded for 5 s, after which 7 µL VOC buffer (140 mM NaCl, 5 mM KCl, 2 mM CaCl2, 1 mM MgCl2, 5 mM HEPES-Na, 31 mM glucose, 0.1% DMSO, pH 7.3, 340 mOsm) was injected into each well in one row and the fluorescence response was recorded for an additional 30 s, at a rate of one read/sec. VOC solutions (VOC buffer with 4× concentration of the final measured VOC concentration, 9 µL/well was injected) were measured on the same wells in a second round with the same protocol. Each individual concentration of a specific VOC sample was recorded in three wells for the same cell line on the same microplate. The raw data were exported in xls file format, F0 and FMAX values, and the fluorescence intensity changes (∆F) were calculated in Excel (Microsoft) (Supplementary file Data summary.xlsx) using the following equation: ΔF=FMAX-F0/F0 (see also Fig. 1C). On each plate, we recorded the response of each cell line to 50 µM VUAA1. The average of these ∆F values of each cell line were used to calculate the VUAA1-normalized values for the rest of the plate, by dividing VOC response ∆F values by the average VUAA1 response ∆F value of the corresponding OR cell line. Each VOC-OR combination was measured three times as technical replicates. […] The average of these replicates were used as one ∆F and VUAA1-normalized ∆F in the following analysis.
# (§4) In the next rows we tested the reference VOCs (or other VOCs known to activate the corresponding cell lines), in order to test if all cell lines are responsive. The remaining rows were used to test VOCs with unknown effect.
# (§5) The recorded FMAX, F0, ∆F, VUAA1-normalized ∆F values, as well as the OR name, the name of the tested sample, and the final concentration for each well were copied into supplementary file Data summary.xlsx, that was used to summarize all the plates recorded. Here, the averages of the measurements were calculated for each receptor-VOC-concentration combination.
# [2] = biological target: T2, Drosophila OR71a (Drosophila melanogaster, UniProt Q9VUK5); test: Calcium ion fluorescence (GCaMP6) assay, OR71a stable HEK293 cell line; type: cell-based; settings: for Average response: OR71a cell line, VUAA1-normalized response, mean of biological replicates; for activation at 1 µM / activation at 10 µM / activation at 100 µM: HEK293, read-out: OR71a response (VUAA1-normalized response)
# T2 construct: expressed in transfected cells
# T2 sequence (Q9VUK5 1-378): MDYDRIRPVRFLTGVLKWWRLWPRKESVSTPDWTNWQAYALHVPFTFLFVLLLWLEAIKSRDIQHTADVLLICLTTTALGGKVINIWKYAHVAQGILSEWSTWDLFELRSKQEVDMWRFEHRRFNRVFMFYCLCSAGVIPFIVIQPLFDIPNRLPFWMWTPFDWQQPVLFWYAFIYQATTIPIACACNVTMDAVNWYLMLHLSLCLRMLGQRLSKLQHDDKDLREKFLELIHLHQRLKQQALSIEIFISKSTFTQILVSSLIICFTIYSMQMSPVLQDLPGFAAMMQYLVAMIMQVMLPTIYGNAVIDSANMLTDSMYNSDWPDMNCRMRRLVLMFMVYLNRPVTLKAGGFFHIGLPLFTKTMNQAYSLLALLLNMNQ
# T2 sequence (Q9VNB5 1-486 partner): T1 sequence (Q9VNB5 1-486 partner)
# Experimental: as §1, §2, §3, §4, §5
# [3] = concentration 1, normalized fluorescence change, values below 0.05 threshold given as 0
# [4] = concentration 10, normalized fluorescence change, values below 0.05 threshold given as 0
# [5] = concentration 100, normalized fluorescence change, values below 0.05 threshold given as 0
# [6] = HEK293, read-out: OR47a response (VUAA1-normalized response)
# [7] = HEK293, read-out: OR47a Average response (VUAA1-normalized)
# [8] = ligand concentration 1 (unit not given), threshold 0.05, below shown as 0
# [9] = ligand concentration 10 (unit not given), threshold 0.05, below shown as 0
# [10] = ligand concentration 100 (unit not given), threshold 0.05, below shown as 0
SMILES,Average response ([1]; odorant cc. 1 µM),Average response ([1]; odorant cc. 10 µM),Average response ([1]; odorant cc. 100 µM),DF norm AVERAGE OR47a ([1]; concentration 1),DF norm AVERAGE OR47a ([1]; concentration 10),DF norm AVERAGE OR47a ([1]; concentration 100),Average response ([2]; cc. 1 µM),Average response ([2]; cc. 10 µM),Average response ([2]; cc. 100 µM),"DF norm AVERAGE OR71a [2, 3]","DF norm AVERAGE OR71a [2, 4]","DF norm AVERAGE OR71a [2, 5]","activation at 1 µM [1, 6]","activation at 10 µM [1, 6]","activation at 100 µM [1, 6]",activation at 1 µM [2],activation at 10 µM [2],activation at 100 µM [2],other results
"C=C(C)C1CCC2(C)OC2C1 (single isomer, unassigned; (+)) [(+)-limonene oxide]",0.00,0.00,0.00,0,0,0,0.0247,0.0256,0.00,0,0,0,–,–,–,–,–,–,OR47a response (VUAA1-normalized response) ([1]; VOC concentration 1 μM): 0.00; OR47a response (VUAA1-normalized response) ([1]; VOC concentration 10 μM): 0.00; OR47a response (VUAA1-normalized response) ([1]; VOC concentration 100 μM): 0.00; OR71a response (VUAA1-normalized response) ([2]; VOC concentration 1 μM): 0.00; OR71a response (VUAA1-normalized response) ([2]; VOC concentration 10 μM): 0.00; OR71a response (VUAA1-normalized response) ([2]; VOC concentration 100 μM): 0.00
"Cc1ccc(C)c(C)c1 [1,2,4-trimethylbenzene]",0.00,0.00,0.00,0,0,0,0.00,0.00,0.00,0,0,0,0%,0%,0%,0%,0%,0%,–
"COc1cccc(OC)c1 [1,3-dimethoxy benzene]",0.00,0.00,0.0217,0,0,0,0.00,0.04,0.00,0,0,0,0%,0%,0%,0%,0%,0%,–
CCCCCCCO [1-heptanol],0.00,0.00,0.0219,0,0,0,0.00,0.00,0.00,0,0,0,0%,0%,0%,0%,0%,0%,–
C=CC(O)CCCCC (stereo not drawn) [1-octen-3-ol],0.00,0.0268,0.14,0,0,0.1389,0.00,0.0223,0.0555,0,0,0.05555,0%,0%,14%,0%,0%,5.55%,"activation at 1 µM [1, 7]: 0%; activation at 10 µM [1, 7]: 3%; activation at 100 µM [1, 7]: 14%"
CCCCCO [1-pentanol],0.00,0.00,0.00,0,0,0,0.0261,0.00,0.00,0,0,0,0%,0%,0%,0%,0%,0%,–
CCCCOC(C)=O [butyl acetate],–,–,–,–,–,–,0.00,0.00,0.0132,–,–,–,–,–,–,0%,0%,0%,"DF norm AVERAGE OR71a [2, 8]: 0; DF norm AVERAGE OR71a [2, 9]: 0; DF norm AVERAGE OR71a [2, 10]: 0"
CCCCOC(=O)CC [butyl propanoate],–,–,–,–,–,–,0.00,0.00,0.03,–,–,–,–,–,–,0%,0%,0%,"DF norm AVERAGE OR71a [2, 8]: 0; DF norm AVERAGE OR71a [2, 9]: 0; DF norm AVERAGE OR71a [2, 10]: 0"

# From article PMC10709440, “High-throughput ligand profile characterization in novel cell lines expressing seven heterologous insect olfactory receptors for the detection of volatile plant biomarkers” (Scientific Reports, 2023)
